Results as given in patent US9254293B2, “Methods and compositions for inhibiting or reducing hair loss, acne, rosacea, prostate cancer, and BPH” (The Trustees of the University of Pennsylvania, priority 2006, dated 2016).
Entries after “also recorded” stand apart in the source; their conditions may differ.

Test system: wild-type c57/black mice
Assay: Topical application of PGD2 to the shaved central back of mice, effect on hair growth
Type: in vivo
Experimental: 25 day-old (corresponding to end of the first telogen stage) wild-type c57/black mice were treated with 200 ng of PGD2 (Cayman Chemicals) diluted in 200 μl of acetone applied to the central back after shaving. Subsequent treatments were performed every 3 days, ending on day 40 For a total of […]. Photographs were taken on day 46 of life, after the end of the 2nd anagen. In the second experiment, mice were shaved and treated with 10 μg of PGD2 dissolved in 200 μl of acetone on days 66 and 69 of life, and then photographed on day #121.

With `CCCCC[C@H](O)/C=C/[C@H]1C(=O)C[C@H](O)[C@@H]1C/C=C\CCCC(=O)O` [PGD2, prostaglandin D2] the “effect of PGD2 on hair growth (alopecia)” value (25 day-old mice, 200 ng PGD2 in 200 μl acetone on central back after shaving, every 3 days to day 40 (5 applications), photographed day 46 after end of 2nd anagen) was “baldness (alopecia); also recorded: induced alopecia” and the “effect of PGD2 on hair regrowth” value (mice shaved, 10 μg PGD2 in 200 μl acetone on days 66 and 69 of life, photographed day 121, over 50 days after the last application) was “prevent hair regrowth”.
